# Data from PMC3729217 (Chembiochem : a European journal of chemical biology, 2010).
# Legend:
# [1] = biological target: PKCα-EGFP (Rattus norvegicus, UniProt P05696); assay: Plasma membrane translocation of PKCα-EGFP in transfected MCF-7 cells; type: cell-based; settings: MCF-7 cells expressing PKCα-EGFP, stimulated with 40 μM, 37°C
# [2] = biological target: T1, PKCε-EGFP (Rattus norvegicus, UniProt P09216); assay: Plasma membrane translocation of PKCε-EGFP in transfected MCF-7 cells; type: cell-based; settings: MCF-7 cells expressing PKCε-EGFP, stimulated with 40 μM, 37°C
# T1 sequence (P09216 1-737): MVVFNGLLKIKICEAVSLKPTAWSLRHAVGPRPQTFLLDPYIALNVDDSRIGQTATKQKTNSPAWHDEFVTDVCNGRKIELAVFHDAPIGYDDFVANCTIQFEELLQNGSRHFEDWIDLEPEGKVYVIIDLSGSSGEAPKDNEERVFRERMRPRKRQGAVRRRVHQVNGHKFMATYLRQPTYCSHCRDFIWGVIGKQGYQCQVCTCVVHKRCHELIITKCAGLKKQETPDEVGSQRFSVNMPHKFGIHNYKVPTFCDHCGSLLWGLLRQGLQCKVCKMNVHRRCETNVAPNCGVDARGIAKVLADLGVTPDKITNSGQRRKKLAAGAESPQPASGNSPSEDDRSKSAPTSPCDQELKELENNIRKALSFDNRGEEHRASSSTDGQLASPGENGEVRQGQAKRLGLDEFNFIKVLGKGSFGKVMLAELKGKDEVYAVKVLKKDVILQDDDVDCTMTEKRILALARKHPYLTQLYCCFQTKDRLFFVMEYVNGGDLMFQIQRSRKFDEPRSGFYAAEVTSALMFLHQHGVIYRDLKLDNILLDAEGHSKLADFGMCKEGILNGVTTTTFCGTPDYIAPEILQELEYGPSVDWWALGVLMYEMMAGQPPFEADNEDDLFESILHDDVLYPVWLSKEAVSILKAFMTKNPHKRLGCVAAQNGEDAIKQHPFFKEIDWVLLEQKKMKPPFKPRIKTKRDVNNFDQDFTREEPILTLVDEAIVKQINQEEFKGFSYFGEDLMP
# [3] = biological target: PKCδ-ECFP (Homo sapiens, UniProt Q05655); assay: Plasma membrane translocation of PKCδ-ECFP in transfected MCF-7 cells; type: cell-based, rat; settings: MCF-7 cells expressing PKCδ-ECFP, stimulated with 40 μM, 37°C
# Chain of PKCδ-ECFP (Q05655 whole entry): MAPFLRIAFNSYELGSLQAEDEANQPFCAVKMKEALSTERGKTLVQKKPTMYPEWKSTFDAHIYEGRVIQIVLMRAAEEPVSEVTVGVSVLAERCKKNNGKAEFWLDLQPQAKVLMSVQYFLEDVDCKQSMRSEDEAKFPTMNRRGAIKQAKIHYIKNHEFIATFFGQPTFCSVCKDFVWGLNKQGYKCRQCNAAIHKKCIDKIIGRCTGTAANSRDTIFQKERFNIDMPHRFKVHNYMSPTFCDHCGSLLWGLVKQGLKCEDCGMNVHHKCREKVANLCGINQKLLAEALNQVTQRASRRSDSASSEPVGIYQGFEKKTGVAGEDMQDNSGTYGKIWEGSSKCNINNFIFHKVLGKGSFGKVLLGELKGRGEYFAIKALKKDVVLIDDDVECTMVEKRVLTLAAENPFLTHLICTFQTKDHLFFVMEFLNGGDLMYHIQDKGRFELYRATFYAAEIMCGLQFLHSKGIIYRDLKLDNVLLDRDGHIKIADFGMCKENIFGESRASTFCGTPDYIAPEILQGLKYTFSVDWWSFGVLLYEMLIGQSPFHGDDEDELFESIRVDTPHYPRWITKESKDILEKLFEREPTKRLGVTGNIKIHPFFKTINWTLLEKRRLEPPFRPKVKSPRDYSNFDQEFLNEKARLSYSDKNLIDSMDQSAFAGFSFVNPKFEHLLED
smiles,measurement,setting,value
"CCCCCCCCCCCCCC(=O)O[C@@H]1[C@@H](C)[C@@]2(O)[C@@H](C=C(CO)C[C@]3(O)C(=O)C(C)=C[C@@H]23)[C@@H]2C(C)(C)[C@]12OC(C)=O [PMA, phorbol 12-myristate 13-acetate]","t1/2, half-time of plasma membrane localization",[1],547 ± 192 s
same,"t1/2, half-time of plasma membrane localization",[2],31 ± 18 s
same,"t1/2, half-time of plasma membrane localization",[3],47 ± 22 s
